Measurements published in article PMC10485003, “Antibiotic hyper-resistance in a class I aminoacyl-tRNA synthetase with altered active site signature motif” (Nature Communications, 2023).
Values joined by “and” are separate entries in the source; they are usually repeats but may differ in a detail not shown here. Equal entries are not always repeated.

Molecular target: T1, mut-GVHH PmIleRS2 (Priestia megaterium, UniProt A0A0B6AVD3, G56H/H54G)
T1 sequence (A0A0B6AVD3 1-1032 H54G/G56H): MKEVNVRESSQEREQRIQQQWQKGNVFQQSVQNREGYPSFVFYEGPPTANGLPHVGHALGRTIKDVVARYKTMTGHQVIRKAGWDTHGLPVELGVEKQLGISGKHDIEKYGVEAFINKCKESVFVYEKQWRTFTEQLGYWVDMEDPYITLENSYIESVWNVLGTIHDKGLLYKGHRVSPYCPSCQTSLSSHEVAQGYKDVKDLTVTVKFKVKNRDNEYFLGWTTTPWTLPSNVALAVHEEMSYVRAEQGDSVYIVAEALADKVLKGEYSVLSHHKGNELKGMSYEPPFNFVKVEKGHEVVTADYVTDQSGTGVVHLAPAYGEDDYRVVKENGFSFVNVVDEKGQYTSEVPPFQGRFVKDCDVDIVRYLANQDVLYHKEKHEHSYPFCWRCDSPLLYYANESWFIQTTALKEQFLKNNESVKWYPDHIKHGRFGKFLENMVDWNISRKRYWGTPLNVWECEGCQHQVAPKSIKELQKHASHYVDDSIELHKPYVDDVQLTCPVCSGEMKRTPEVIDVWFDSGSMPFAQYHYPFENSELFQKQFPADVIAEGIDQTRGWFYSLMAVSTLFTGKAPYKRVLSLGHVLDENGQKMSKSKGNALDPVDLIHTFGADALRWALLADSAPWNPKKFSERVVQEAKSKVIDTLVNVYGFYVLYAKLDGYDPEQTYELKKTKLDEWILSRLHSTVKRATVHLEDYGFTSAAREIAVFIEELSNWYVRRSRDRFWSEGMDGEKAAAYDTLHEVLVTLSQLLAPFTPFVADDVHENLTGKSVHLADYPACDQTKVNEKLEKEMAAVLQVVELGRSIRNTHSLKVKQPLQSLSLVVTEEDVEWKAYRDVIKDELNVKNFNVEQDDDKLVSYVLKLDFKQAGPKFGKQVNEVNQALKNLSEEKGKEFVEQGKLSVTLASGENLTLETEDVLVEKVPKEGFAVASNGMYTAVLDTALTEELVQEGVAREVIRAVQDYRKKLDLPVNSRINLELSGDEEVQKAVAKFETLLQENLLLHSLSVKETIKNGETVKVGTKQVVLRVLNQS
Experiment: ATP-PPi exchange assay, mupirocin inhibition of amino acid activation
Assay type: biochemical, Priestia (Bacillus) megaterium
Procedure: L-Ile and ATP concentrations ranged from 1/10 KM to 10 KM values. When measuring the KI towards one of the substrates, the other was held in saturation (concentrations at least 10 KM). The aliquots of the reaction mixture (1–2.5 μl) were quenched in 2 volumes of 500 mM NaOAc pH = 4.5, 0.1% SDS, and formed ^32P-ATP was separated from the remaining ^32P-PPi by thin-layer chromatography on Polygram CEL 300 PEI UV254 TLC plates (Macherey-Nagel, cat: 801063) using 750 mM KH2PO4 pH=3.5, 4 M urea buffer. Visualization and quantification of the signals was performed using a Typhoon Phosphoimager 5 (General Electric) and accompanying ImageQuant™ TL software (SV: 10.2). The kinetic constants were determined using a global fit option of the competitive inhibition model of GraphPad Prism 6 software (SV: 6.01). All experiments were performed in triplicates. The kcat was determined by dividing the maximal velocity, VM, with the used enzyme concentration. […]
variable substrate (ATP or Ile) was varied in the range of 0.1 KM to 10 KM. The other substrate (Ile or ATP) was kept in excess at 5 to 10 KM. Data were globally fitted to the competitive inhibition model using GraphPad prism 6.01 for Windows software. The values represent the average value ± SD of three independent experiments. Source data are provided as a Source Data file.

Compound `C/C(=C\C(=O)OCCCCCCCCC(=O)O)C[C@@H]1OC[C@H](C[C@@H]2O[C@H]2[C@@H](C)[C@H](C)O)[C@@H](O)[C@H]1O` [mupirocin] has a vo (c (mupirocin) = 5.0 mM, c (Ile) 250.0 μM, Replica 3) of 0.00839 mM/min, a vo (c (mupirocin) = 5.0 mM, c (Ile) 500.0 μM, Replica 1) of 0.01582 mM/min and a vo (c (mupirocin) = 5.0 mM, c (Ile) 500.0 μM, Replica 2) of 0.01771 mM/min. The vo (c (mupirocin) = 5.0 mM, c (Ile) 500.0 μM, Replica 3) was 0.01671 mM/min, the vo (c (mupirocin) = 5.0 mM, c (Ile) 1000.0 μM, Replica 1) was 0.02937 mM/min and the vo (c (mupirocin) = 5.0 mM, c (Ile) 1000.0 μM, Replica 2) was 0.03008 mM/min. The vo (c (mupirocin) = 5.0 mM, c (Ile) 1000.0 μM, Replica 3) was 0.02918 mM/min, the vo (c (mupirocin) = 5.0 mM, c (Ile) 1500.0 μM, Replica 1) was 0.03962 mM/min and the vo (c (mupirocin) = 5.0 mM, c (Ile) 1500.0 μM, Replica 2) was 0.03913 mM/min. For the same compound, the vo (c (mupirocin) = 5.0 mM, c (Ile) 1500.0 μM, Replica 3) was 0.04025 mM/min, the vo (c (mupirocin) = 10.0 mM, c (Ile) 100.0 μM, Replica 1) was 0.00192 mM/min and the vo (c (mupirocin) = 10.0 mM, c (Ile) 100.0 μM, Replica 2) was 0.00188 mM/min. The vo (c (mupirocin) = 10.0 mM, c (Ile) 100.0 μM, Replica 3) was 0.00205 mM/min, the vo (c (mupirocin) = 10.0 mM, c (Ile) 250.0 μM, Replica 1) was 0.00384 mM/min and the vo (c (mupirocin) = 10.0 mM, c (Ile) 250.0 μM, Replica 2) was 0.00477 mM/min. For the same compound, the vo (c (mupirocin) = 10.0 mM, c (Ile) 250.0 μM, Replica 3) was 0.00429 mM/min, the vo (c (mupirocin) = 10.0 mM, c (Ile) 500.0 μM, Replica 1) was 0.00975 mM/min and the vo (c (mupirocin) = 10.0 mM, c (Ile) 500.0 μM, Replica 2) was 0.01055 mM/min. The vo (c (mupirocin) = 10.0 mM, c (Ile) 500.0 μM, Replica 3) was 0.01023 mM/min, the vo (c (mupirocin) = 10.0 mM, c (Ile) 1000.0 μM, Replica 1) was 0.01549 mM/min and the vo (c (mupirocin) = 10.0 mM, c (Ile) 1000.0 μM, Replica 2) was 0.01681 mM/min. For the same compound, the vo (c (mupirocin) = 10.0 mM, c (Ile) 1000.0 μM, Replica 3) was 0.01726 mM/min, the vo (c (mupirocin) = 10.0 mM, c (Ile) 1500.0 μM, Replica 1) was 0.02248 mM/min and the vo (c (mupirocin) = 10.0 mM, c (Ile) 1500.0 μM, Replica 2) was 0.02398 mM/min. The vo (c (mupirocin) = 10.0 mM, c (Ile) 1500.0 μM, Replica 3) was 0.02428 mM/min, the initial velocity vo (c(mupirocin) 0.5 mM, c(ATP) 0.5 mM) was 0.00635 mM/min and 0.00811 mM/min and the initial velocity vo (c(mupirocin) 0.5 mM, c(ATP) 1.0 mM) was 0.01441 mM/min and 0.01486 mM/min and 0.01387 mM/min. For the same compound, the initial velocity vo (c(mupirocin) 0.5 mM, c(ATP) 2.5 mM) was 0.03283 mM/min and 0.03264 mM/min and 0.03523 mM/min, the initial velocity vo (c(mupirocin) 0.5 mM, c(ATP) 5.0 mM) was 0.05375 mM/min and 0.05359 mM/min and 0.05506 mM/min and the initial velocity vo (c(mupirocin) 0.5 mM, c(ATP) 10.0 mM) was 0.07349 mM/min and 0.07632 mM/min and 0.07609 mM/min. The initial velocity vo (c(mupirocin) 0.5 mM, c(ATP) 20.0 mM) was 0.09482 mM/min and 0.09569 mM/min and 0.09403 mM/min, the initial velocity vo (c(mupirocin) 0.5 mM, c(Ile) 50.0 μM) was 0.00742 mM/min and 0.00851 mM/min and 0.00786 mM/min and the initial velocity vo (c(mupirocin) 1.0 mM, c(ATP) 0.5 mM) was 0.00716 mM/min and 0.0055 mM/min and 0.00625 mM/min. For the same compound, the initial velocity vo (c(mupirocin) 1.0 mM, c(ATP) 1.0 mM) was 0.01194 mM/min and 0.01202 mM/min and 0.01221 mM/min, the initial velocity vo (c(mupirocin) 1.0 mM, c(ATP) 2.5 mM) was 0.0252 mM/min and 0.02429 mM/min and 0.02403 mM/min and the initial velocity vo (c(mupirocin) 1.0 mM, c(ATP) 5.0 mM) was 0.04205 mM/min and 0.0434 mM/min and 0.0426 mM/min. For the same compound, the initial velocity vo (c(mupirocin) 1.0 mM, c(ATP) 10.0 mM) was 0.06359 mM/min and 0.06579 mM/min and 0.06457 mM/min, the initial velocity vo (c(mupirocin) 1.0 mM, c(ATP) 20.0 mM) was 0.08534 mM/min and 0.08763 mM/min and 0.08559 mM/min and the initial velocity vo (c(mupirocin) 1.0 mM, c(Ile) 50.0 μM) was 0.00713 mM/min and 0.00706 mM/min and 0.00704 mM/min. The initial velocity vo (c(mupirocin) 2.5 mM, c(ATP) 1.0 mM) was 0.00558 mM/min and 0.0055 mM/min and 0.00551 mM/min, the initial velocity vo (c(mupirocin) 2.5 mM, c(ATP) 2.5 mM) was 0.01306 mM/min and 0.01742 mM/min and 0.01281 mM/min and the initial velocity vo (c(mupirocin) 2.5 mM, c(ATP) 5.0 mM) was 0.02499 mM/min and 0.026 mM/min and 0.02496 mM/min. For the same compound, the initial velocity vo (c(mupirocin) 2.5 mM, c(ATP) 10.0 mM) was 0.04221 mM/min and 0.04045 mM/min and 0.04296 mM/min, the initial velocity vo (c(mupirocin) 2.5 mM, c(ATP) 20.0 mM) was 0.05896 mM/min and 0.06416 mM/min and 0.05964 mM/min and the initial velocity vo (c(mupirocin) 2.5 mM, c(Ile) 50.0 μM) was 0.00279 mM/min and 0.00348 mM/min and 0.00209 mM/min. For the same compound, the initial velocity vo (c(mupirocin) 5.0 mM, c(ATP) 0.5 mM) was 0.00206 mM/min and 0.00219 mM/min and 0.0025 mM/min, the initial velocity vo (c(mupirocin) 5.0 mM, c(ATP) 1.0 mM) was 0.00362 mM/min and 0.00342 mM/min and 0.00337 mM/min and the initial velocity vo (c(mupirocin) 5.0 mM, c(ATP) 2.5 mM) was 0.00795 mM/min and 0.00842 mM/min and 0.00825 mM/min. For the same compound, the initial velocity vo (c(mupirocin) 5.0 mM, c(ATP) 5.0 mM) was 0.01509 mM/min and 0.0154 mM/min and 0.01576 mM/min, the initial velocity vo (c(mupirocin) 5.0 mM, c(ATP) 10.0 mM) was 0.02771 mM/min and 0.02665 mM/min and 0.0265 mM/min and the initial velocity vo (c(mupirocin) 5.0 mM, c(ATP) 20.0 mM) was 0.04308 mM/min and 0.04226 mM/min. The initial velocity vo (c(mupirocin) 5.0 mM, c(Ile) 50.0 μM) was 0.00223 mM/min and 0.00239 mM/min and 0.00197 mM/min and the initial velocity vo (c(mupirocin) 10.0 mM, c(Ile) 50.0 μM) was 0.00094 mM/min and 0.00075 mM/min and 0.00127 mM/min.
